According to US11969428B2, “Methods and pharmaceutical compositions for treating lymphoid malignancy” (priority 2011, dated 2024):

Tests used:
Experiment in all cases: Ambit KinomeScan screening
Type in all cases: binding
Conditions in all cases: CAL-130 10 μM
CDC2L1 = target: T1, CDC2L1 (Homo sapiens, UniProt P21127)
T1 construct: purchased Ambit (KinomeScan screening)
Protocol: (§1) CAL-130 (10 μM) was evaluated for its ability to prevent tagged kinases from interacting with immobilized “bait” ligand (Karaman et al., 2008). Results are reported as “% of control binding”, where lower numbers indicate stronger interactions with the tagged kinase. Values of >35% are considered “no hits”. PI3Kδ had the lowest percentage of control binding at 0.2% followed by PI3Kγ at 3.2% (See Table 1 below). These values indicate a high probability of a potent interaction. 353 kinases were assessed in the screen (Table 2).

EGFR = target: T2, EGFR (Homo sapiens, UniProt P00533)
T2 construct: unspecified tag; purchased Ambit (KinomeScan screening service)
Protocol: as §1

PAK6 = target: T3, PAK6 (Homo sapiens, UniProt Q9NQU5)
T3 construct: tag (kind not specified); purchased Ambit (KinomeScan screening service)
Protocol: as §1

STK16 = target: T4, STK16 (Homo sapiens, UniProt O75716)
T4 construct: purchased Ambit (KinomeScan screening service)
Protocol: as §1

LIMK1 = target: T5, LIMK1 (Homo sapiens, UniProt P53667)
T5 construct: unspecified tag ('tagged kinases'); purchased Ambit (KinomeScan screening service)
Protocol: as §1

JAK1(JH1domain) = target: T6, JAK1(JH1domain) (Homo sapiens, UniProt P23458)
T6 construct: JAK1(JH1domain); purchased Ambit (KinomeScan screening)
Protocol: as §1

CAMKK1 = target: T7, CAMKK1 (Homo sapiens, UniProt Q8N5S9)
T7 construct: purchased Ambit (KinomeScan screening)
Protocol: as §1

EPHA4 = target: T8, EPHA4 (Homo sapiens, UniProt P54764)
T8 construct: purchased Ambit (KinomeScan screening service)
Protocol: as §1

FGFR1 = target: T9, FGFR1 (Homo sapiens, UniProt P11362)
T9 construct: unspecified tag; purchased Ambit (KinomeScan screening service)
Protocol: as §1

STK36 = target: T10, STK36 (Homo sapiens, UniProt Q9NRP7)
T10 construct: tag (kind not specified); purchased Ambit (KinomeScan screening service)
Protocol: as §1

AURKC = target: T11, AURKC (Homo sapiens, UniProt Q9UQB9)
T11 construct: purchased Ambit (KinomeScan screening service)
Protocol: as §1

CSNK1D = target: T12, CSNK1D (Homo sapiens, UniProt P48730)
T12 construct: purchased Ambit (KinomeScan screening service)
Protocol: as §1

YSK4 = target: T13, YSK4 (Homo sapiens, UniProt Q56UN5)
T13 construct: purchased Ambit (KinomeScan screening service)
Protocol: as §1

TRKC = target: T14, TRKC (Homo sapiens, UniProt Q16288)
T14 construct: tag, kind not specified; purchased Ambit (KinomeScan screening service)
Protocol: as §1

GSK3B = target: T15, GSK3B (Homo sapiens, UniProt P49841)
T15 construct: unspecified tag ('tagged kinases'); purchased Ambit (KinomeScan screening service)
Protocol: as §1

MAPKAPK2 = target: T16, MAPKAPK2 (Homo sapiens, UniProt P49137)
T16 construct: Ambit (KinomeScan screening)
Protocol: as §1

MAP3K4 = target: T17, MAP3K4 (Homo sapiens, UniProt Q9Y6R4)
T17 construct: Ambit (KinomeScan screening)
Protocol: as §1

SRC = target: T18, SRC (Homo sapiens, UniProt P12931)
T18 construct: tag, kind not specified; purchased Ambit (KinomeScan screening service)
Protocol: as §1

ABL1(M351T) = target: T19, ABL1(M351T) (Homo sapiens, UniProt P00519, M351T)
T19 construct: unspecified tag ("tagged kinases"); purchased Ambit (KinomeScan screening)
Protocol: as §1

CHEK2 = target: T20, CHEK2 (Homo sapiens, UniProt O96017)
T20 construct: purchased Ambit (KinomeScan screening service)
Protocol: as §1

AURKB = target: T21, AURKB (Homo sapiens, UniProt Q96GD4)
T21 construct: purchased Ambit (KinomeScan screening service)
Protocol: as §1

LTK = target: T22, LTK (Homo sapiens, UniProt P29376)
T22 construct: unspecified tag ('tagged kinases'); purchased Ambit (KinomeScan screening service)
Protocol: as §1

KIT(V559D, T670I) = target: T23, KIT(V559D, T670I) (Homo sapiens, UniProt P10721, T670I/V559D)
T23 construct: unspecified tag ('tagged kinases'); purchased Ambit (KinomeScan screening)
Protocol: as §1

BMPR2 = target: T24, BMPR2 (Homo sapiens, UniProt Q13873)
T24 construct: unspecified tag ("tagged kinases"); purchased Ambit (KinomeScan screening)
Protocol: as §1

RPS6KA2 = target: T25, RPS6KA2 (Homo sapiens, UniProt Q15349)
T25 construct: unspecified tag (tagged kinase); purchased Ambit (KinomeScan screening)
Protocol: as §1

RET(V804M) = target: T26, RET(V804M) (Homo sapiens, UniProt P07949, V804M)
T26 construct: tag (kind not specified); purchased Ambit (KinomeScan screening service)
Protocol: as §1

CSNK1G1 = target: T27, CSNK1G1 (Homo sapiens, UniProt Q9HCP0)
T27 construct: purchased Ambit (KinomeScan screening service)
Protocol: as §1

EPHA5 = target: T28, EPHA5 (Homo sapiens, UniProt P54756)
T28 construct: purchased Ambit (KinomeScan screening service)
Protocol: as §1

OSR1 = target: T29, OSR1 (Homo sapiens, UniProt O95747)
T29 construct: purchased Ambit (KinomeScan screening service)
Protocol: as §1

JNK2 = target: T30, JNK2 (Homo sapiens, UniProt P45984)
T30 construct: purchased Ambit (KinomeScan screening)
Protocol: as §1

ERK1 = target: T31, ERK1 (Homo sapiens, UniProt P27361)
T31 construct: unspecified tag ("tagged kinases"); purchased Ambit (KinomeScan screening service)
Protocol: as §1

PRKG2 = target: T32, PRKG2 (Homo sapiens, UniProt Q13237)
T32 construct: tag (kind not specified); purchased Ambit (KinomeScan screening service)
Protocol: as §1

DMPK = target: T33, DMPK (Homo sapiens, UniProt Q09013)
T33 construct: unspecified tag ("tagged kinases"); purchased Ambit (KinomeScan screening service)
Protocol: as §1

CAMK4 = target: T34, CAMK4 (Homo sapiens, UniProt Q16566)
T34 construct: purchased Ambit (KinomeScan screening)
Protocol: as §1

TYRO3 = target: T35, TYRO3 (Homo sapiens, UniProt Q06418)
T35 construct: tag, kind not specified; purchased Ambit (KinomeScan screening service)
Protocol: as §1

BMPR1B = target: T36, BMPR1B (Homo sapiens, UniProt O00238)
T36 construct: purchased Ambit (KinomeScan screening service)
Protocol: as §1

Measured: Percent of Control Binding

T8 sequence (P54764 20-986): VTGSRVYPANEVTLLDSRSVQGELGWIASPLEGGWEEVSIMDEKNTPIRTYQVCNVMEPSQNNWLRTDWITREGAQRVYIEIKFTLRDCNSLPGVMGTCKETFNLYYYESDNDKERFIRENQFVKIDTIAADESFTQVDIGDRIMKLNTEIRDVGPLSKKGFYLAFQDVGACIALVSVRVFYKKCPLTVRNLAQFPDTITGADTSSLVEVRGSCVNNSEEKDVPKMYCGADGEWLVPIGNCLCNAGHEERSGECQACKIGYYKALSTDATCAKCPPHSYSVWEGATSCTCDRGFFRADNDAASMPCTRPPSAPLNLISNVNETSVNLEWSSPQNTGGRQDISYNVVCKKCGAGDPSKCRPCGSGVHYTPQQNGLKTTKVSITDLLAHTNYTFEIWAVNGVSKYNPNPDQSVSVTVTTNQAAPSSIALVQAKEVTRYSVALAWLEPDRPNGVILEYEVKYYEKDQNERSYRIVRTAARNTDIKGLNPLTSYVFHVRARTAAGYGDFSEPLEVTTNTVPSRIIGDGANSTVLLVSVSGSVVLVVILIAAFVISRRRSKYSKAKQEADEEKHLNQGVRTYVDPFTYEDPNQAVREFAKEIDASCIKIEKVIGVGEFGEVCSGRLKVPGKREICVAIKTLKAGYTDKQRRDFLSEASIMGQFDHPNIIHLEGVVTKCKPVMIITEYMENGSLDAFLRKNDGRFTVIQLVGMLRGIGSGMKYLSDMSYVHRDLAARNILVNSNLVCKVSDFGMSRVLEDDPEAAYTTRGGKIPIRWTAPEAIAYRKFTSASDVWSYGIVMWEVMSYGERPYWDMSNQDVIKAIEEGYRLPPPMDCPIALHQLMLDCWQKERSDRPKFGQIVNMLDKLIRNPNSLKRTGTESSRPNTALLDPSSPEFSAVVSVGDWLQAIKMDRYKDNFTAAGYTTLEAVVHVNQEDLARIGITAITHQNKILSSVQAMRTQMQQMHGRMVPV
T1 sequence (P21127 whole entry): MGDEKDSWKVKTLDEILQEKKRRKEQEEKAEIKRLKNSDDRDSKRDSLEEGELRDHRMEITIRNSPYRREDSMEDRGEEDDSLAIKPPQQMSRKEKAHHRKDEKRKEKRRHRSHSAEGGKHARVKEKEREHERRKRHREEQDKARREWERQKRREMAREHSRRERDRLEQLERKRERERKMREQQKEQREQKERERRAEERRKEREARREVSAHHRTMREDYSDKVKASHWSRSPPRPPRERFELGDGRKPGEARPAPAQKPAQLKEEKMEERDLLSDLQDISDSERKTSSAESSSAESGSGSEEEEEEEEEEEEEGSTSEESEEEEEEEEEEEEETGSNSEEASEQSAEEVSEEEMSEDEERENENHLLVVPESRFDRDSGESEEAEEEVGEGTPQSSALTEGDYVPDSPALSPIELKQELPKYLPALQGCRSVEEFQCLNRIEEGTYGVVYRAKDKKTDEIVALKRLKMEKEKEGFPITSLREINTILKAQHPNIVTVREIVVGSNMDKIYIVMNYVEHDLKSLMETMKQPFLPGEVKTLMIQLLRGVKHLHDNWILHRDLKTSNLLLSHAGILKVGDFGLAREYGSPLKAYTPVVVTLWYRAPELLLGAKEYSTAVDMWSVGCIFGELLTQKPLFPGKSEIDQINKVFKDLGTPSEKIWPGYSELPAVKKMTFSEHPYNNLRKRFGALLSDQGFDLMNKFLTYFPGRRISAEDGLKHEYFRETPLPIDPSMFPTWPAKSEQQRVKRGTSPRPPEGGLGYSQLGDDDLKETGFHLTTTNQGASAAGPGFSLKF
T34 sequence (Q16566 whole entry): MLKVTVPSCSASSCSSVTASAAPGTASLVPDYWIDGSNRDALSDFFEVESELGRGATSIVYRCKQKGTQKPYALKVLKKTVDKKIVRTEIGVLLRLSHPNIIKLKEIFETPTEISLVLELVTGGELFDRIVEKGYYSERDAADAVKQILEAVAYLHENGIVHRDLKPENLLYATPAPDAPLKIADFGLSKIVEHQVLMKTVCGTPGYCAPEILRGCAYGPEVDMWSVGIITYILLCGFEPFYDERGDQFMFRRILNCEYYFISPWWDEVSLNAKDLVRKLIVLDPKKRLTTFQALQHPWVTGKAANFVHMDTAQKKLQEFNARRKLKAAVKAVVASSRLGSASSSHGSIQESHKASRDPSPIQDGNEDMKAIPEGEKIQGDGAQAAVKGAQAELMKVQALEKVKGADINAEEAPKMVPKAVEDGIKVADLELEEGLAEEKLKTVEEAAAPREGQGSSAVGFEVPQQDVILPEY
T15 sequence (P49841 whole entry): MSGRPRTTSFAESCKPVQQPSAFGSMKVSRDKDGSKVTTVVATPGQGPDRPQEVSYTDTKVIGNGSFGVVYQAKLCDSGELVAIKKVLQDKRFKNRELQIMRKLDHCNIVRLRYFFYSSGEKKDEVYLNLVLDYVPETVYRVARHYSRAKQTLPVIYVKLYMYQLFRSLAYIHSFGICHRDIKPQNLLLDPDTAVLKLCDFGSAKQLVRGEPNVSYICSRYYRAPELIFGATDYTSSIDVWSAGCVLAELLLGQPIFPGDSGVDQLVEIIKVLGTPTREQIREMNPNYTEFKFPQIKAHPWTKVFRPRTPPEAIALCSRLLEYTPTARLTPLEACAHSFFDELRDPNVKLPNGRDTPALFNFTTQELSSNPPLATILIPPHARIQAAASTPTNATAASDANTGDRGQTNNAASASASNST
T36 sequence (O00238 14-502): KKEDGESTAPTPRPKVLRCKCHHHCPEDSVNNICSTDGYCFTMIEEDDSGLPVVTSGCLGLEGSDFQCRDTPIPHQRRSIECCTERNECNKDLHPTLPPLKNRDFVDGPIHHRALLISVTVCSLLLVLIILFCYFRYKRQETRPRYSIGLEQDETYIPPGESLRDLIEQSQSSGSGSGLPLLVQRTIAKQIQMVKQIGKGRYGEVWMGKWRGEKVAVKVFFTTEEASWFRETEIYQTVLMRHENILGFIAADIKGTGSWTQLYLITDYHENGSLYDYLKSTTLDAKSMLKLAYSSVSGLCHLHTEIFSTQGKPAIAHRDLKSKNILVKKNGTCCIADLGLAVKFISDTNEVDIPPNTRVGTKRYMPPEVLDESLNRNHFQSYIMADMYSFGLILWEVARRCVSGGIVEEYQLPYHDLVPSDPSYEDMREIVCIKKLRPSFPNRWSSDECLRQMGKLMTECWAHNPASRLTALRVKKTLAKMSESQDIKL
T22 sequence (P29376 17-864): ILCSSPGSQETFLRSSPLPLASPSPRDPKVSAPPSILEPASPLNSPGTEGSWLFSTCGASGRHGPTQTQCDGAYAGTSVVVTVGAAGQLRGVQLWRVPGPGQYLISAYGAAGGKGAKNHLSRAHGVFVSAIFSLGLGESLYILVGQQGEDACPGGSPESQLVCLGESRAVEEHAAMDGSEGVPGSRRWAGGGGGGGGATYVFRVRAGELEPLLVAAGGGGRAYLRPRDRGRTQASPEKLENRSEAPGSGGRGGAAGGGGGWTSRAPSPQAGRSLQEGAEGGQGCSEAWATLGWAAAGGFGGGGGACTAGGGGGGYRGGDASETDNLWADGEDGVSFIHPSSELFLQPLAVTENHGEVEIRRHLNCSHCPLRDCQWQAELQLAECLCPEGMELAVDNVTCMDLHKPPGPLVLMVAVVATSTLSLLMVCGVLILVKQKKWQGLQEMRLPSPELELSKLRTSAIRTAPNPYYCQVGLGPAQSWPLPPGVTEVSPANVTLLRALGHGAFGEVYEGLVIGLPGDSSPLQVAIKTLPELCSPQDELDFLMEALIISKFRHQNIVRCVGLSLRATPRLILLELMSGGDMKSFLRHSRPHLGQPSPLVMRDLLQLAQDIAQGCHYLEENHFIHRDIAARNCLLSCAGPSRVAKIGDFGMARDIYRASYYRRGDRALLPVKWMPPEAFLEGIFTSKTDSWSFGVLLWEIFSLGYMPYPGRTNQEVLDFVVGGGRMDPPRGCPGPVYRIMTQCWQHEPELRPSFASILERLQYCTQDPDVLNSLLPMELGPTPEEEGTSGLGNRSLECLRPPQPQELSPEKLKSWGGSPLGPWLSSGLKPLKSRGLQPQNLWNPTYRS
T24 sequence (Q13873 27-1038): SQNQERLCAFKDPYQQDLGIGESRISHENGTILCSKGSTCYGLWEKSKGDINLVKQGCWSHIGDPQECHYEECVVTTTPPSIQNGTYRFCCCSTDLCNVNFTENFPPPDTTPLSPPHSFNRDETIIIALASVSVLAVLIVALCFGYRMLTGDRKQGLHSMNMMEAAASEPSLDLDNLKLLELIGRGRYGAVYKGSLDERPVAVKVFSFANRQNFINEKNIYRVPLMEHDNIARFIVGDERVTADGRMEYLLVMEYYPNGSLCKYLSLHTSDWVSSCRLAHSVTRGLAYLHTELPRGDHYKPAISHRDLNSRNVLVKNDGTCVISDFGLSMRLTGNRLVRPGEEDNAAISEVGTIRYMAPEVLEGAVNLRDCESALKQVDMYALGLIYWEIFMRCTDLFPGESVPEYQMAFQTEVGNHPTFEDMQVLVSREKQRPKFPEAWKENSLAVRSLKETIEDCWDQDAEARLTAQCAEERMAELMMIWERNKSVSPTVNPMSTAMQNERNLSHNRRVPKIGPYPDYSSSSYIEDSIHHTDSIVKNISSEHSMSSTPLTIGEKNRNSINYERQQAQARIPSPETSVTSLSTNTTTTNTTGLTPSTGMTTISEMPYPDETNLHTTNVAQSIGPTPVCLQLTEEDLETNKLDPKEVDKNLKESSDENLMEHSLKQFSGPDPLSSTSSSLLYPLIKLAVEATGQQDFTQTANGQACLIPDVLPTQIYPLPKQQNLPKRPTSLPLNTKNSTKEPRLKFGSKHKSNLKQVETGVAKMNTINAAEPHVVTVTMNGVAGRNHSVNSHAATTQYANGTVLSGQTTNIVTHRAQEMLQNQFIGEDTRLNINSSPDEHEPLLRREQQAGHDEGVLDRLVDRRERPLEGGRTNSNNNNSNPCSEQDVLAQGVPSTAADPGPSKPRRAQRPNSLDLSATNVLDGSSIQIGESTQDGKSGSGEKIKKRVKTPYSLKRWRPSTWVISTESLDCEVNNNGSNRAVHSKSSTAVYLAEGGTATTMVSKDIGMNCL

Cc1ccccc1-n1c(C(C)Nc2nc(N)nc3nc[nH]c23)nc2cccc(C)c2c1=O (stereo not drawn) [CAL-130]
100%: all assays above
